The target of assay [1] is mouse brain membrane PS lipase activity (Mus musculus, UniProt Q9Z1Q2). It is filed as biochemical. As to conditions: two-month old ABHD12+/+ and ABHD12−/− mice.
Assay [2] deals with MCF7 cells. The experiment in a line: PS lipase activity of membrane fraction after in situ treatment. As to conditions: 1 μM, 4 h.
Assay [3] relates to ABHD16A−/− macrophages. Nature of the assay: Lyso-PS and cytokines of ABHD16A−/− macrophages. In kind it is cell-based, mouse. Particulars: basal or LPS stimulation; 1 μM, 4 h. Here is the method:
Concentration of secreted lyso-PS (a) and cytokines IL-6 (b) and TNF-α (c) from thioglycollate-elicited peritoneal mouse macrophages from ABHD16A^−/− mice treated with inhibitor (KC01 or KC02, 1 μM, 4 h) followed by vehicle (PBS) or LPS (5 μg/mL) for 7 h is shown. Data represent mean±s.e.m. for four biological replicates. KC01 and KC02 have no effect on lyso-PS or cytokine secretion. Other secreted and cellular lipids in ABHD16A^−/− macrophages were also unchanged by KC01 or KC02 treatment (data not shown).
Peritoneal macrophages were elicited and harvested from mice according to the standard protocols available from LIPID MAPS (See http://www.lipidmaps.org/protocols/PP0000001400.pdf and http://www.lipidmaps.org/protocols/PP0000001500.pdf). After removal of the RBC lysis buffer, the macrophages were re-suspended in RPMI 1640 with 10% FCS and IX penicillin-streptomycin. Cell counts measured using a Bio-Rad TC10 automated cell counter, and equal numbers of cells (2×10^6) were plated in 10 cm tissue culture dishes. Macrophages were allowed to adhere to the plates for 2 h at 37° C. and 5% CO2. […] Macrophages were then stimulated with lipopolysaccharide (5 μg/mL) for 7 hours. Sterile PBS was the vehicle in these studies. Four milliliters of the media was used for measuring secreted metabolites, and 0.5 mL was used for cytokine measurements.

The target of assay [4] is T1, ABHD16A (Homo sapiens, UniProt O95870).
T1 sequence (O95870 1-558): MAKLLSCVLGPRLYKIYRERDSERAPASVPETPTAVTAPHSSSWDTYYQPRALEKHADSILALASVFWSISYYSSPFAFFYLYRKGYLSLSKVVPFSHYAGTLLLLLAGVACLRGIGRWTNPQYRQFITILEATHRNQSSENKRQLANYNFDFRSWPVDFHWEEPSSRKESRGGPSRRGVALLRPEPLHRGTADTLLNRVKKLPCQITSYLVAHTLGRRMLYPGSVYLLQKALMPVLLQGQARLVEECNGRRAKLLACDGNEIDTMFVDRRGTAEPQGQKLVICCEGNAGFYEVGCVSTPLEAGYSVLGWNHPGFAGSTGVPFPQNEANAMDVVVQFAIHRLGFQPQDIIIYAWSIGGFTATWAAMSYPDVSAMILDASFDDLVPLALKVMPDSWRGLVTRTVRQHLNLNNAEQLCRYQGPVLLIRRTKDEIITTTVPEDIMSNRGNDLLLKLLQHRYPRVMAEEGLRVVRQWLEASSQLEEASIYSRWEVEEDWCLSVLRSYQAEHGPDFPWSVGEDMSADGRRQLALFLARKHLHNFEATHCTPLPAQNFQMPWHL
The experiment in a line: ABPP-SILAC, COLO205 cells treated in situ. Also on record: All ABPP-SILAC experiments were performed using the human COLO205 colon cancer cell line; endogenous in cells; host or cells: COLO205. It is filed as cell-based.

Structures are written as SMILES. Bounds are passed on as bounds.

mouse brain membrane PS lipase activity, sequence (Q9Z1Q2 whole entry): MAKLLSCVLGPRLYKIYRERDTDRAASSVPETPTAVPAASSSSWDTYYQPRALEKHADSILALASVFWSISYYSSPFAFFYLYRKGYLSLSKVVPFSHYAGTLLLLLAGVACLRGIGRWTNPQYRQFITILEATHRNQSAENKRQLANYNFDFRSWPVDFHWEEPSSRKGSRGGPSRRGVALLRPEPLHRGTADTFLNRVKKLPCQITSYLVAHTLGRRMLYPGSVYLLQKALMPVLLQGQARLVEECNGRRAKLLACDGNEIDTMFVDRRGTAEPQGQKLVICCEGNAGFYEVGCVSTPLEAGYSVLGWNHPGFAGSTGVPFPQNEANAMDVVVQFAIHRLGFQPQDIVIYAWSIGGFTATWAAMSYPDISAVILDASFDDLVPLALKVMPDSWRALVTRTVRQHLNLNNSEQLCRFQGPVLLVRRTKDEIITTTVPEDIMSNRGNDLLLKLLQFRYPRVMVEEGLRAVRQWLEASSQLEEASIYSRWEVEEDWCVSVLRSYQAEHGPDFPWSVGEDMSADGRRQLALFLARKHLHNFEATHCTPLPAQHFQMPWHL

Broadly, the inhibition is the relative decrease from the control value, in per cent. Low values mean a weak effect, high ones a strong effect. In the case of `CCCCCCCCCCCCCC1OC(=O)/C1=C\CCCCC(N)=O` (centres unmarked) [KC01, (Z)-6-(2-oxo-4-tridecyloxetan-3-ylidene)hexanamide], the “PS lipase activity of brain membrane lysates” value in assay [1] is on record as “inhibited the PS lipase activity”. In addition, the “decrease of PS-lipase activity vs DMSO” value in assay [2] is recorded as greater than 90%. In assay [3], the “cellular or secreted lyso-PS, other lipids, secreted IL-6 and TNF-α” value is listed as “No changes”. In addition, the “light:heavy ratio” value in assay [4] (1 μM, 4 h) is listed as 0.02. For the same compound, the inhibition at 1 µM in assay [4] (COLO 205, 4 h) is 98%.
